Series [1] has as its system RBC ATP pools. Briefly: Stability of expanded RBC ATP pools in washed isolated RBCs in vitro after i.p. injection (Table 5). Also noted: species or system mouse. The conditions noted are these: average of two experiments. Here is the method: (§1) The mice are anesthetized with ether during the procedure. Plasma or Hanks' (Balanced Salt Solution) BSS media from incubated isolated RBCs (Red Blood Cells) are prepared by centrifugation of whole blood or RBCs in a Beckman microfuge (30 seconds at 8000 xg) and samples of 100 μl are added to 1 ml of ice-cold 7% trichloroacetic acid. Red blood cells are prepared by centrifugation of whole blood (1500 xg for 5 minutes at 4° C.) and removal of plasma and the buffy coat is followed by a wash of the pelleted RBCs (from 250 μl of whole blood) in 5 ml of ice-cold Hanks' BSS. After centrifugations, the RBCs pellet is resuspended in Hanks' BSS to yield a total volume with the original hematocrit (percent of RBCs volume in the whole blood). Aliquots of 20 μl of RBCs suspensions or whole blood are added to 1 ml of ice-cold 7% trichloroacetic acid. Extraction of acid-soluble nucleotides and determinations of ATP levels by luminometry followed procedures discussed hereinabove. Levels of [^3 H]ATP in whole blood, RBCs, plasma, or RBCs incubation media (Hanks' BSS) are determined after incorporation of 250 μCi of [^3 H]adenosine of specific radioactivity of 30 Ci/mmol (1 Ci=3.7×10^10 becquerels) into whole blood or RBC suspensions (250 μl total) followed by immediate trichloroacetic acid extractions as described above. Two dimensional thin layer chromatography on poly(ethylene)imine cellulose with an unlabeled ATP carrier is performed according to Bochner and Ames, J. Biol. Chem., 257, pp. 9759-9769, 1982). For the determination of whole blood or isolated RBC [^3 H]ATP pools, 10 μl of a 1 ml initial trichloroacetic acid extract are chromatographed. Determinations of [^3 H]ATP levels in blood plasma or RBCs incubation media are performed on 300 μl of an initial 1 ml trichloroacetic acid extract which are lyophilized and redissolved in 15 μl of water. After chromatography, the spots corresponding to the ATP carrier are cut, eluted with 0.5 ml of 4 N ammonium hydroxide, and radioactivity determined in 10 ml of scintillation fluid.
Two hour incubations of washed isolated RBCs containing normal or expanded ATP pools in Hanks' BSS result in relatively small decreases in RBC ATP pools with the expanded pools being maintained well above normal levels (Table 5). The expansions of RBC ATP pools after i.p. administration of AMP or ATP in vivo is presumably the result of their dephosphorylation followed by the RBCs uptake of the adenosine which is generated in situ.

In series [2] the test system is RBC ATP pools. Briefly: Expansion of RBC ATP pools and blood plasma ATP levels after i.p. injection (Table 4). Type of series: in vivo, mouse. Here is the method: as §1
Single intraperitoneal injections of 2 ml of 35 mM of AMP or ATP in saline at pH 6.2 into CB6F1 mice result in expansions of RBC ATP pools in these mice (see Table 4).
The expansions of RBC ATP pools after i.p. injections of AMP or ATP could be detected 30 minutes after injections and lasted for approximately 6-8 hours after the nucleotides were completely adsorbed across the peritoneal membrane and into the systemic circulation. The rates of adsorption of intraperitoneal AMP or ATP solutions varied in different strains of mice. […] These plasma ATP levels originate in RBCs since they can be metabolically labeled by [^3 H]adenosine. Plasma ATP pools which originate in the dense granules of blood platelets would not be radioactively labeled under the same conditions (e.g., Holmsen, 1985, Seminars in Hematol, 22, 219-240). The experiments described in Tables 4 and 5 include uptake of [^3 H]adenosine by whole blood (Table 4) or isolated washed RBCs (Table 5 below). In both cases, all the extracellular ATP, determined seconds after the uptake of [^3 H]adenosine, is metabolically labeled.

Series [3] concerns RBC ATP pools. Briefly: RBC ATP pools after in vitro incubation of whole mouse blood with 1 mM compound (Table 6). Format: cell-based. The note with it: 1 mM compound, 30 min, bioluminometry. Here is the method: ^+ RBC ATP pools were determined in isolated washed RBCs after
incubations of whole blood with 1 mM of the specified compound by
bioluminometry. Data represent means ± S.D. of three separate

For series [4], the system named is CT26 colon adenocarcinoma. Kind of series: Growth inhibition of footpad CT26 colon adenocarcinoma in CB6F1 mice, second series (FIGS. 2 and 3). Format: in vivo, mouse. As to the method:
(§2) A further series of tests are conducted whereby tumors are inoculated by injections of 2.5×10^5 CT26 cells (over 90% viability) in 50 μl of phosphate-buffered saline into the right hind footpad of CB6F1 mice. The treatments were initiated at a variety of times after inoculation of the tumors. The injection schedules started either 1 or 5 days after tumor inoculation when none of the tumors are palpable or when the tumors are clearly palpable (average calculated weight of 100 mg), which occur in 100% of the inoculated mice after 8-11 days. Mice are randomized, divided into groups, and injected daily with 2.2 ml of saline, adenosine, AMP, or ATP (compounds are in sterile saline solutions at concentrations of 25 mM with AMP and ATP solutions adjusted to pH 6.2). Injections are administered intraperitoneally with 30 gauge needles and the mice are lightly anesthetized with […]. The mice are weighed and tumor sizes measured before the start of the treatment schedule and every three days during and after the treatment schedule. These determinations are performed before injections during the treatment period.
(§3) In particular, see FIG. 2. FIG. 2 illustrates inhibition of tumor growth (---) and host weight loss (-) in tumor-bearing mice by treatment with adenine nucleotides. Mice (CB6F1, 8 week old males) bearing palpable CT26 footpad tumors (on day 9 after tumor inoculation) are treated with saline (.smallcircle.), adenosine (o), AMP (Δ), or ATP (.quadrature.) as described herein. An untreated group is also included (x). Arrows indicate days of injection.
The magnitude of the antitumor activities of AMP and ATP depends to a small extent on the pH of the solution administered intraperitoneally. This property is probably related to the number of negative charges on the phosphate groups (the pKa of the secondary phosphate is around 6.6). AMP and especially ATP have some buffering capacity, and at a pH below 6.6 they carry a smaller net charge than at a physiological pH. The lower charge of these molecules enhances the initial (first hour) transport of AMP and ATP across the peritoneal membrane and into the systemic circulation (see Torres, et al., 1978, Pharmacol., 17, 330-340). […] The treatment schedule of palpable CT26 tumors which is illustrated in FIG. 2 consistently yields 10-20% of "cures". These mice remain tumor-free for at least two months.
FIG. 3 further illustrates inhibition of host weight loss in tumor-bearing animals by treatment with adenine nucleotides. Mice (CB6F1, males, 7 weeks old, in A, 10 weeks old in B, […]) with saline (.smallcircle.), adenosine (o), AMP (Δ), or ATP (.quadrature.) are initiated 1 day (A), 5 days (B), or 9 days after tumor inoculation (when all the tumors were palpable) (C). Arrows indicate days of injection. Experimental procedures were outlined in the text.

Series [5] is described as follows: Inhibition of host weight loss (cancer cachexia) in CT26 tumor-bearing mice. Format: in vivo, mouse. Here is the method: as §2, §3
FIG. 3 further illustrates inhibition of host weight loss in tumor-bearing animals by treatment with adenine nucleotides. Mice (CB6F1, males, 7 weeks old, in A, 10 weeks old in B, C) are inoculated with CT26 tumors and daily treatments (for 10 consecutive days) with saline (.smallcircle.), adenosine (o), AMP (Δ), or ATP (.quadrature.) are initiated 1 day (A), 5 days (B), or 9 days after tumor inoculation (when all the tumors were palpable) (C). Arrows indicate days of injection. Experimental procedures were outlined in the text.

The mark [6] stands for this setting: 5 hours after i.p. injection of 2 ml of 35 mM, CB6F1, bioluminometry, citrate-dextrose.

With `Nc1ncnc2c1ncn2[C@@H]1O[C@H](CO)[C@@H](O)[C@H]1O` [Adenosine, adenosine], in the series with RBC ATP pools [1] (time 0), the “Medium (Hanks' BSS) [^3 H]ATP levels immediately after [^3 H]adenosine incorporation into isolated, washed RBCs (at time 0)” value is 1.20 µM. For the same molecule, in the series on RBC ATP pools [1] (time 0, bioluminometry), the “ATP levels in the medium (Hanks' BSS)” value is 1.71 µM. Also, the “RBC ATP pools (37° C.), 0 min” value in the series on RBC ATP pools [1] (washed RBCs in Hanks' BSS, 37° C., 0 min) is on record as 0.69 mM. The “RBC ATP pools (37° C.), 120 min” value with RBC ATP pools [1] (washed RBCs in Hanks' BSS, 37° C., 120 min) was 0.54 mM. In the series with RBC ATP pools [2] (setting [6]), the “Plasma ATP levels” value turned out to be 1.12 ± 0.28 µM and the “RBC ATP pools” value was determined as 1.10 ± 0.24 mM. Further, the “Plasma [^3 ]ATP levels immediately after [^3 H]adenosine incorporation into whole blood” value with RBC ATP pools [2] (5 hours after i.p. injection of 2 ml of 35 mM, CB6F1, radioactivity corrected by RBC specific radioactivity) came out at 0.77 ± 0.30 µM. In addition, the “Expansion of RBC ATP pools (in words)” value in the series on RBC ATP pools [2] (i.p. injection, host animals) is given as “only slightly effective in expanding mouse RBC ATP pools”. In addition, in the series with RBC ATP pools [3], the “RBC ATP pools (after 30 min incubations in heparinized mouse blood)” value came out at 0.55 ± 0.17 µM. In addition, the “Anticancer activities against established footpad CT26 colon adenocarcinoma” value in series [4] (CB6F1 mice, in words) was “without such effects”. The “Deaths before stated day after tumor inoculation” value in series [4] (FIG. 2 experiment, palpable CT26 tumors, 10 animals per group) was “No deaths occurred before day 22”. In addition, the “Inhibition of growth of palpable CT26 tumors (in words)” value in series [4] (daily i.p. in 2.2 ml saline, pH 6.2, 12 days, starting after tumors palpable, equimolar amounts) is given as “Much weaker anticancer activities”. In addition, the “Deaths before stated day after tumor inoculation” value in series [5] (FIG. 3, treatment initiated day 1 (A), day 5 (B) or day 9 (C)) is given as “No deaths occurred before day 19 (A) or day 25 (B,C)”. In series [5] (FIGS. 3A and 3B, treatment from day 1 or day 5), the “Effect on tumor growth and rate of weight loss, schedules ending before tumors become large” value is given as “having only a small effect on either of the two phenomena”. Besides, in series [5] (tumors of similar sizes, FIG. 2 data), the “Inhibition of host weight loss (in words)” value is on record as “inhibit weight loss”.

(Values after US5049372A, “Anticancer activities in a host by increasing blood and plasma adenosine 5'-triphosphate (ATP) levels” (priority 1988, dated 1991).)
